According to patent US11584714B2 (priority 2018, dated 2023):
Counter-ions that a name gives are not always drawn. Like-named read-outs stand apart in the source and are kept apart here.

How the values were obtained:
human α-thrombin = human α-thrombin (Homo sapiens (Human), UniProt P00734); test: Enzymatic assay for thrombin (Boc-VPR-AMC substrate); type: biochemical
MASP-2 (CCP1-CCP2-SP) = MASP-2 (CCP1-CCP2-SP) (Homo sapiens (Human), UniProt O00187); test: biochemical; type: biochemical
[1] = MASP-2 inhibition versus thrombin
[2] = selectivity for MASP-2 inhibition versus thrombin

MASP-2 (CCP1-CCP2-SP), sequence (O00187 445-686): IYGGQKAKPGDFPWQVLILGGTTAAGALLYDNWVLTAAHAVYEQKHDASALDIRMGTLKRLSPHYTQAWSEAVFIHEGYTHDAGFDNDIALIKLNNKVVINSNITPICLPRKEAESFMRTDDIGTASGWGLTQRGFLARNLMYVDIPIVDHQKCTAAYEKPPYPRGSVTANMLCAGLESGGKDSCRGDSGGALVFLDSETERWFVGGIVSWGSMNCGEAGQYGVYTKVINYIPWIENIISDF

SMILES	Ki (human α-thrombin; read-out: Thrombin Ki)	MASP-2 vs. thrombin selectivity (MASP-2 (CCP1-CCP2-SP); [1])	Ki (MASP-2 (CCP1-CCP2-SP); read-out: MASP-2 Ki)	Ki (MASP-2 (CCP1-CCP2-SP))	also measured
C[C@H](NC(=O)[C@H](N)CCc1ccc(F)cc1F)C(=O)NCc1ccc(C(=N)N)cc1 [compound 1084]	< 0.5 µM	** (5.0 to 25-fold)	< 500 nM		
C[C@H](NC(=O)[C@H](N)CCc1cc(F)cc(F)c1)C(=O)NCc1ccc(C(=N)N)cc1 [compound 1087]	< 0.5 µM	** (5.0 to 25-fold)	< 500 nM		
N=C(N)c1ccc2[nH]c(-c3cc4ccccc4cn3)nc2c1 [compound 2014, 2-(isoquinolin-3-yl)-1H-benzo[d]imidazole-5-carboximidamide dihydrochloride]				> 25000 nM	Ki (human α-thrombin; +EDTA, read-out: Thrombin Ki): < 25 µM; Ki (human α-thrombin; +Zn, read-out: Thrombin Ki): < 2.5 µM; MASP-2 versus thrombin selectivity (MASP-2 (CCP1-CCP2-SP); +Zn): +++ (+Zn) (25 to 100-fold); Ki (MASP-2 (CCP1-CCP2-SP); +Zn, read-out: MASP-2 Ki): < 500 nM
N=C(N)c1ccc(CNC(=O)[C@@H]2CCCN2C(=O)[C@H](N)C2CCCCC2)cc1 [compound 1027]	< 0.5 µM	−− (less than 1.0-fold)	< 500 nM		
N=C(N)c1ccc2[nH]c(-c3ccc4ccccc4n3)nc2c1 [compound 2013, 2-(quinolin-2-yl)-1H-benzo[d]imidazole-5-carboximidamide dihydrochloride]				> 25000 nM	Ki (human α-thrombin; +Zn, read-out: Thrombin Ki): < 10 µM; Ki (human α-thrombin; Thrombin Ki (μM), +EDTA): > 25 µM; MASP-2 versus thrombin selectivity (MASP-2 (CCP1-CCP2-SP); +Zn): ++++ (+Zn) (>100-fold); Ki (MASP-2 (CCP1-CCP2-SP); +Zn, read-out: MASP-2 Ki): < 500 nM
Cc1cccc([C@H]2CN[C@@H](C(=O)N[C@@H](C)C(=O)NCc3cc(Cl)ccc3O)C2)c1 [compound 1254, (2R,4S)—N—((S)-1-((5-Chloro-2-hydroxybenzyl)amino)-1-oxopropan-2-yl)-4-(m-tolyl)pyrrolidine-2-carboxamide]			< 500 nM		Ki (human α-thrombin; Thrombin Ki (μM)): 10 to 25 µM; MASP-2 vs. thrombin selectivity (MASP-2 (CCP1-CCP2-SP); [2]): *** (≥25 to <100-fold)
Cc1ccnc(-c2nc3cc(C(=N)N)ccc3[nH]2)c1 [compound 2005, 2-(4-methylpyridin-2-yl)-1H-benzo[d]imidazole-5-carboximidamide dihydrochloride]				> 25000 nM	Ki (human α-thrombin; +Zn, read-out: Thrombin Ki): < 0.05 µM; Ki (human α-thrombin; Thrombin Ki (μM), +EDTA): > 25 µM; MASP-2 versus thrombin selectivity (MASP-2 (CCP1-CCP2-SP); +Zn): + (+Zn) (1.0 to 5.0-fold); Ki (MASP-2 (CCP1-CCP2-SP); +Zn, read-out: MASP-2 Ki): < 50 nM
COc1cc(C(=N)N)ccc1CNC(=O)[C@H](C)NC(=O)[C@H](N)CCc1ccccc1 [compound 1251, (R)-2-amino-N—((S)-1-((4-carbamimidoyl-2-methoxybenzyl)amino)-1-oxopropan-2-yl)-4-phenylbutanamide]	< 0.5 µM			500 to 2500 nM	MASP-2 vs. thrombin selectivity (MASP-2 (CCP1-CCP2-SP); [2]): −− (<1.0-fold)
C[C@H](NC(=O)[C@H](N)Cc1ccc2ccccc2c1)C(=O)NCc1ccc(C(=N)N)cc1 [compound 1093]	< 0.5 µM	−− (less than 1.0-fold)	< 500 nM		
C[C@H](NC(=O)[C@@H](CCc1ccccc1)NCc1ccc(O)cc1)C(=O)NCc1ccc(C(=N)N)cc1 [compound 1140, (R)—N—((S)-1-((4-Carbamimidoylbenzyl)amino)-1-oxopropan-2-yl)-2-((4-hydroxybenzyl)amino)-4-phenylbutanamide Dihydrochloride]	< 0.5 µM	−− (less than 1.0-fold)	< 500 nM		
C[C@H](NC(=O)[C@H](N)CCc1cccc(C(F)(F)F)c1)C(=O)NCc1ccc(C(=N)N)cc1 [compound 1120]	< 0.5 µM	** (5.0 to 25-fold)	< 500 nM		
C[C@H](NC(=O)[C@H](N)CCc1ccccc1)C(=O)NCc1cc(Cl)ccc1OCC(=O)NCCCO [compound 1237, (R)-2-amino-N—((S)-1-((5-chloro-2-(2-((3-hydroxypropyl)amino)-2-oxoethoxy)benzyl)amino)-1-oxopropan-2-yl)-4-phenylbutanamide]				10000 to 25000 nM	Ki (human α-thrombin; Thrombin Ki (μM)): 0.5 to 2.5 µM; MASP-2 vs. thrombin selectivity (MASP-2 (CCP1-CCP2-SP); [2]): −− (<1.0-fold)
COC(=O)NC(=N)c1ccc(CNC(=O)[C@H](C)NC(=O)[C@H]2C[C@H](c3ccccc3)CN2)cc1 [compound 1258, Methyl (imino(4-(((S)-2-((2R,4R)-4-phenylpyrrolidine-2-carboxamido)propanamido)methyl)phenyl)methyl)carbamate]	> 25 µM			2500 to 10000 nM	
